How the values were obtained:
P388 [1] = experiment: Inhibition of proliferation of […] at concentration of 0.1 uM was determined; format: functional; conditions: Mus musculus
A549 [2] = experiment: Inhibition of proliferation of A549 cells at concentration of 10 uM was determined; format: functional; conditions: Homo sapiens
A549 [3] = experiment: Concentration for in vitro cytotoxicity against A-549 human lung tumor cells; format: functional, cell-based
P388 [4] = experiment: Inhibition of proliferation of […] at concentration of 100 uM was determined; format: functional; conditions: Mus musculus
P388 [5] = experiment: Concentration for in vitro cytotoxicity against murine P388 leukemia cells; format: functional, cell-based; conditions: Mus musculus
A549 [6] = experiment: Inhibition of proliferation of A549 cells at concentration of 100 uM was determined; format: functional; conditions: Homo sapiens
A549 [7] = experiment: Inhibition of proliferation of A549 cells at concentration of 1 uM was determined; format: functional; conditions: Homo sapiens
A549 [8] = experiment: Inhibition of proliferation of A549 cells at concentration of 0.1 uM was determined; format: functional; conditions: Homo sapiens
P388 [9] = experiment: Inhibition of proliferation of […] at concentration of 10 uM was determined; format: functional; conditions: Mus musculus
P388 [10] = experiment: Inhibition of proliferation of […] at concentration of 1 uM was determined; format: functional; conditions: Mus musculus

| SMILES | inhibition at 0.1 µM (P388 [1]) [%] | inhibition at 10 µM (A549 [2]) [%] | IC50 (A549 [3]) [µM] | inhibition at 100 µM (P388 [4]) [%] | IC50 (P388 [5]) [µM] | inhibition at 100 µM (A549 [6]) [%] | inhibition at 1 µM (A549 [7]) [%] | inhibition at 0.1 µM (A549 [8]) [%] | inhibition at 10 µM (P388 [9]) [%] | inhibition at 1 µM (P388 [10]) [%] |
| --- | --- | --- | --- | --- | --- | --- | --- | --- | --- | --- |
| Cc1ccc(S(=O)(=O)n2cc(-c3cc(C(F)(F)F)cc(-c4cn(S(=O)(=O)c5ccc(C)cc5)c5cc(Br)ccc45)n3)c3ccc(Br)cc32)cc1 | 8.1 | 32 | > 100 | 8.9 | > 100 | 49.2 | 30.7 | 25.8 | 15.1 | 10 |
| Cc1ccc(S(=O)(=O)n2cc(-c3cc(C(F)(F)F)ccn3)c3cc(OCc4ccccc4)ccc32)cc1 | – | 9.9 | > 100 | 2.2 | > 100 | 35.9 | 23.2 | 16.9 | – | – |
| Cc1ccc(S(=O)(=O)n2cc(-c3cc(C(F)(F)F)c(C#N)c(-c4cn(S(=O)(=O)c5ccc(C)cc5)c5ccc(Br)cc45)n3)c3cc(Br)ccc32)cc1 | – | 9.6 | 78 | 8.2 | > 100 | 70.6 | 17.4 | 9.8 | – | 3.7 |
| COc1ccc2c(-c3cc(C(F)(F)F)cc(-c4cn(S(=O)(=O)c5ccc(C)cc5)c5cc(OC)ccc45)n3)cn(S(=O)(=O)c3ccc(C)cc3)c2c1 | – | 28.8 | 1.7 | 99.9 | 4.3 | 97.1 | 35.5 | 1.7 | 92.8 | – |
| Cc1ccc(S(=O)(=O)n2cc(-c3cc(C(F)(F)F)c(C#N)c(-c4cn(S(=O)(=O)c5ccc(C)cc5)c5cc(Br)ccc45)n3)c3ccc(Br)cc32)cc1 | 3.1 | 27.6 | > 100 | 1.3 | > 100 | 48.1 | 18.8 | 23.8 | 5.7 | 1.7 |
| Cc1ccc(S(=O)(=O)n2cc(-c3cc(C(F)(F)F)ccn3)c3ccccc32)cc1 | – | 35 | 25 | 49.9 | > 100 | 68.4 | 23.8 | 25 | – | 10.5 |
| COc1ccc2c(c1)c(-c1cc(C(F)(F)F)ccn1)cn2S(=O)(=O)c1ccc(C)cc1 | – | 14.1 | > 100 | 15.6 | > 100 | 51.8 | 23.2 | 16.9 | – | – |
| Cc1ccc(S(=O)(=O)n2cc(-c3cc(C(F)(F)F)cc(-c4cn(S(=O)(=O)c5ccc(C)cc5)c5ccccc45)n3)c3ccccc32)cc1 | 15.7 | 27.6 | 23 | 14.7 | > 100 | 69.3 | 36.7 | 37.5 | 23.5 | 20.9 |
| COc1ccc2c(c1)c(-c1cc(C(F)(F)F)cc(-c3cn(S(=O)(=O)c4ccc(C)cc4)c4ccc(OC)cc34)n1)cn2S(=O)(=O)c1ccc(C)cc1 | 9.3 | 22.2 | > 100 | 13.8 | > 100 | 41.7 | 7.1 | 16.7 | 5 | 7 |
| COc1ccc2c(c1)c(-c1cc(C(F)(F)F)c(C#N)c(-c3cn(S(=O)(=O)c4ccc(C)cc4)c4ccc(OC)cc34)n1)cn2S(=O)(=O)c1ccc(C)cc1 | 1.7 | 25.2 | > 100 | – | > 100 | 17.7 | 24.4 | 25 | 3.5 | – |
| COc1ccc2c(-c3cc(C(F)(F)F)c(C#N)c(-c4cn(S(=O)(=O)c5ccc(C)cc5)c5cc(OC)ccc45)n3)cn(S(=O)(=O)c3ccc(C)cc3)c2c1 | 5.1 | 13.3 | > 100 | 3.8 | > 100 | 21.2 | 26.7 | 33 | 10.1 | 9.1 |
| Cc1ccc(S(=O)(=O)n2cc(-c3cc(C(F)(F)F)ccn3)c3cc(Br)ccc32)cc1 | 9.7 | 20.6 | 4.1 | 32.6 | > 100 | 98 | 32.8 | 38.9 | 21.9 | 17.8 |

Source: ChEMBL document CHEMBL1134187, “Synthesis and antitumor evaluation of novel monoindolyl-4-trifluoromethylpyridines and bisindolyl-4-trifluoromethylpyridines” (Bioorg Med Chem Lett, 2001)
